System: Raf-1^gof intestinal tumors
Settings: for Log2 (fold) (luciferase activity, log2 of the fold difference relative to DMSO controls) / Fold (luciferase activity, fold difference relative to DMSO controls): screen of 480 ICCB compounds in vials, compounds fed to flies with one-day old Raf-1^gof tumors, esg-Gal4 luciferase; for Log2 (fold) (luciferase activity, log2 of the fold difference relative to DMSO controls) / Fold (luciferase activity, fold difference relative to DMSO controls) / Log2 (fold) of luciferase activity relative to DMSO controls / Fold (luciferase activity relative to DMSO controls): assessed three days later; for Fold (luciferase activity, fold difference relative to DMSO controls) / Fold (luciferase activity relative to DMSO controls): averaged from multiple wells; for Log2 (fold) of luciferase activity relative to DMSO controls / Fold (luciferase activity relative to DMSO controls): ICCB compounds fed in vials to flies with one-day old Raf-1^gof tumors
Throughout, for Fold (luciferase activity relative to DMSO controls): test concentration or dose not given here.
Throughout, for Fold (luciferase activity, fold difference relative to DMSO controls): test concentration or dose not given here.
Throughout, for Log2 (fold) (luciferase activity, log2 of the fold difference relative to DMSO controls): test concentration or dose not given here.
Throughout, for Log2 (fold) of luciferase activity relative to DMSO controls: test concentration or dose not given here.

| Compound | Log2 (fold) (luciferase activity, log2 of the fold difference relative to DMSO controls) | Fold (luciferase activity, fold difference relative to DMSO controls) | Log2 (fold) of luciferase activity relative to DMSO controls | Fold (luciferase activity relative to DMSO controls) [fold] | Fold (Table 3 summary of hits, Screen ICCB, luciferase relative to DMSO, fed three consecutive days in vials) [fold] |
| --- | --- | --- | --- | --- | --- |
| mastoparan | −0.301 | 0.812 | – | – | – |
| C/C(O)=C(\C#N)C(=O)Nc1cc(Br)ccc1Br [LFM-A13] | −0.417 | 0.749 | – | – | – |
| CCCCC/C=C\C/C=C\C/C=C\C/C=C\CCCCCC(=O)O [ADRENIC ACID (22:4, n-6)] | −0.364 | 0.777 | – | – | – |
| N=C(N)NC(=O)c1nc(Cl)c(N)nc1N [AMILORIDE] | – | – | −0.041 | 0.972 | – |
| O=C(O)c1ccccc1Nc1cccc(C(F)(F)F)c1 [FLUFENAMIC ACID] | −0.214 | 0.862 | – | – | – |
| CCCCCCCC/C=C\CCCCCCCC(=O)OCC(CO)OC(=O)CCCCCCC/C=C\CCCCCCCC (centres unmarked) [1,2-DIOLEOYL-GLYCEROL (18:1)] | – | – | 0.443 | 1.359 | – |
| CC(C)=CCC/C(C)=C/CC/C(C)=C/CSCC(=O)O [FARNESYLTHIOACETIC ACID] | −0.295 | 0.815 | – | – | – |
| CCCCCCCCCCCCC/C=C/[C@@H](O)[C@H](CO)NC(=O)CCCCCCCCCCCCCCC [C16 CERAMIDE] | −0.496 | 0.709 | – | – | – |
| OCCN(CCO)c1nc(N2CCCCC2)c2nc(N(CCO)CCO)nc(N3CCCCC3)c2n1 [dipyridamole] | −0.431 | 0.742 | – | – | – |
| C=C1[C@@H](C)[C@H]2[C@H](Cc3ccccc3)NC(=O)[C@]23OC(=O)/C=C/[C@H](O)CCC[C@@H](C)C/C=C/[C@H]3[C@@H]1O [cytochalasin B] | −0.677 | 0.625 | – | – | – |
| O=C(O)CCC/C=C\C[C@@H]1[C@H](CNNC(=O)Nc2ccccc2)[C@H]2CC[C@@H]1O2 [SQ-29548] | −0.606 | 0.657 | – | – | – |
| CC1=C(C)C(=O)C(CCCCC#CCCCC#CCO)=C(C)C1=O [AA-861] | −0.444 | 0.735 | – | – | – |
| BW-B 70C | – | – | 0.116 | 1.084 | – |
| O=C(O)c1cc(N(Cc2ccccc2O)Cc2cc(O)ccc2O)ccc1O [Lavendustin A] | −0.297 | 0.814 | – | – | – |
| O=C(O)c1cccnc1Nc1cccc(C(F)(F)F)c1 [NIFLUMIC ACID] | – | – | −0.201 | 0.870 | – |
| COCCCCCCCCCCCC(=O)O [12-METHOXYDODECANOIC ACID] | −0.320 | 0.801 | – | – | – |
| COC(=O)[C@@H]1[C@H]2C[C@H]3c4[nH]c5ccccc5c4CCN3C[C@@H]2CC[C@@H]1O [yohimbine] | – | – | 0.061 | 1.043 | – |
| Cc1cccc(CCN2CCC(C(=O)c3ccc(NS(C)(=O)=O)cc3)CC2)n1 [E-4031] | – | – | −0.195 | 0.874 | – |
| CCCCCCCCCCCCC/C=C/[C@@H](O)[C@H](CO)N(C)C [N,N-DIMETHYLSPHINGOSINE] | −0.487 | 0.713 | – | – | – |
| Cc1ccc(S(=O)(=O)/C=C/C#N)cc1 [BAY 11-7082] | −0.470 | 0.722 | – | – | – |
| CCCCC/C=C\C/C=C\C/C=C\C/C=C\CCCC(=O)NCc1ccc(O)c(OC)c1 [Arvanil] | −0.482 | 0.716 | – | – | – |
| COc1cc(/C=C/C(=O)CC(=O)/C=C/c2ccc(O)c(OC)c2)ccc1O [Curcumin] | – | – | 0.112 | 1.081 | – |
| CC[C@@H]1/C=C/C=C/C[C@H](C)[C@H](O)[C@](C)(O)C(=O)[C@H](C)[C@@H](O)[C@H](C)C(=O)[C@H](C)[C@@H](O)[C@H](C)/C=C/C(=O)O[C@H]2[C@@H](C)[C@@H](CC1)O[C@@]1(CC[C@@H](C)[C@@H](C[C@H](C)O)O1)[C@@H]2C [oligomycin A, reference compound] | −1.131 | 0.457 | – | – | 0.457 |

From patent US20130096067A1, “DROSOPHILA TUMOR STEM CELL MODEL AND USES THEREOF” (priority 2011, published 2013)
